# Measured values from patent US11390597B2, “Salt and solid state forms of escitalopram” (priority 2017, dated 2022).
# Tests used:
# [1] = Comparative pharmacokinetics of escitalopram salts, IV and SC administration in rats; format: in vivo; conditions: Sprague dawley rats, single IV dose 1 mg/kg or SC dose 5 mg/kg, blood analyzed for escitalopram
# Description: Escitalopram salt solutions are prepared for intravenous (IV) and/or subcutaneous (SC) administration as follows: A 1 mg/kg solution of escitalopram oxalate (Ox-Esc) is prepared for IV administration at 1 mL/kg in 10% DMSO, 30% Solutol® (polyoxyethylated 12-hydroxystearic acid), 60% PBS.
# A 1 mg/kg solution of escitalopram pamoate (P-Esc) is prepared for IV administration 1 mL/kg in 10% DMSO, 30% Solutol®, 60% PBS, and for SC administration 200 uL of 5 mg/kg in DMSO.
# The pharmacokinetics of IV administered escitalopram oxalate are determined as follows. […] Blood is collected from rats post dose in EDTA K2 tubes in a staggered design (cohort 1: 0 min, 30 min, 4 hr, 24 hr; cohort 2: 5 min, 1 hr, 8 hr, 36 hr; cohort 3: 15 min, 2 hr, 12 hr, 48 hr) and analyzed for escitalopram.
# The pharmacokinetics of IV administered escitalopram pamoate are determined as follows. […] Blood is collected from rats post dose in EDTA K2 tubes in a staggered design (cohort 1: 0 min, 30 min, 4 hr, 24 hr; cohort 2: 5 min, 1 hr, 8 hr, 36 hr; cohort 3: 15 min, 2 hr, 12 hr, 48 hr) and analyzed for escitalopram.
# The pharmacokinetics of SC administered escitalopram pamoate are determined as follows. […] Blood is collected from rats post dose in EDTA K2 tubes in a staggered design (cohort 1: 0 min, 1 hr, 8 hr, 48 hr; cohort 2: 5 min, 2 hr, 24 hr, 72 hr; cohort 3: 30 min, 4 hr, 36 hr, 96 hr) and analyzed for escitalopram. […]
# [2] = Treatment of human subjects with escitalopram gentisate composition; format: in vivo; conditions: human subject afflicted with a neuropsychiatric disorder, periodic administration (IV, oral, subcutaneous)
# Source text: Periodic administration is meant to include inter alia IV, oral and subcutaneous administration.
compound,measurement,setting,value
CN(C)CCCC1(c2ccc(F)cc2)OCc2cc(C#N)ccc21.O=C(O)c1cc(O)ccc1O (centres unmarked) [escitalopram gentisate],pharmacokinetic profile compared with pamoate and oxalate salts,[1],distinct from those of the pamoate and oxalate salts
same,reducing or eliminating the symptoms of the neuropsychiatric disorder,[2],clinically meaningful advantage in reducing or eliminating the symptoms
